Where “and” joins values, the source holds several entries; their conditions need not be identical. Equal values may be shown once.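 Cells were grown in 96-well plates and exposed to each compound for 48 hours at five concentrations; endpoints were interpolated linearly between bracketing concentrations, or set to the highest concentration if not reached. GI50 marks 50% less growth. At the TGI there is no net growth.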
Columns and labels:
Test in all cases: DTP human tumour cell line panel, 48 h; in the data active = GI50 below about 0.43 µM; inactive = the rest
DU-145 prostate = system: DU-145 prostate
OVCAR-8 ovarian = system: OVCAR-8 ovarian
ACHN renal = system: ACHN renal
BT-549 breast = system: BT-549 breast
SK-MEL-5 melanoma = system: SK-MEL-5 melanoma
HL-60(TB) leukemia = system: HL-60(TB) leukemia
NCI-H23 lung = system: NCI-H23 lung
SF-295 CNS = system: SF-295 CNS
SNB-19 CNS = system: SNB-19 CNS
NCI-H460 lung = system: NCI-H460 lung
HOP-62 NSCLC = system: HOP-62 NSCLC
HOP-92 NSCLC = system: HOP-92 NSCLC
K-562 leukemia = system: K-562 leukemia
IGROV1 ovarian = system: IGROV1 ovarian
EKVX NSCLC = system: EKVX NSCLC
A498 renal = system: A498 renal
UO-31 renal = system: UO-31 renal
MDA-MB-435 = system: MDA-MB-435
SK-MEL-28 melanoma = system: SK-MEL-28 melanoma
RPMI-8226 leukemia = system: RPMI-8226 leukemia
KM12 colon = system: KM12 colon
M14 melanoma = system: M14 melanoma
786-0 renal = system: 786-0 renal
SW-620 colon = system: SW-620 colon
OVCAR-3 ovarian = system: OVCAR-3 ovarian
OVCAR-5 ovarian = system: OVCAR-5 ovarian
MALME-3M melanoma = system: MALME-3M melanoma
HCT-15 colon = system: HCT-15 colon
NCI-H226 lung = system: NCI-H226 lung
MCF7 breast = system: MCF7 breast
A549 NSCLC = system: A549 NSCLC
HCT-116 colon = system: HCT-116 colon
NCI-H522 lung = system: NCI-H522 lung
CAKI-1 renal = system: CAKI-1 renal
UACC-62 melanoma = system: UACC-62 melanoma
SNB-75 CNS = system: SNB-75 CNS
SR leukemia = system: SR leukemia
HCC-2998 colon = system: HCC-2998 colon
MDA-MB-231 breast = system: MDA-MB-231 breast
OVCAR-4 ovarian = system: OVCAR-4 ovarian
NCI/ADR-RES ovarian = system: NCI/ADR-RES ovarian
SK-OV-3 ovarian = system: SK-OV-3 ovarian
HT29 colon = system: HT29 colon
SF-268 CNS = system: SF-268 CNS
MDA-N = system: MDA-N
U251 CNS = system: U251 CNS
TK-10 renal = system: TK-10 renal
HS 578T breast = system: HS 578T breast
LOX IMVI melanoma = system: LOX IMVI melanoma
MOLT-4 leukemia = system: MOLT-4 leukemia
T-47D breast = system: T-47D breast
CCRF-CEM leukemia = system: CCRF-CEM leukemia
RXF 393 renal = system: RXF 393 renal
SN12C renal = system: SN12C renal
PC-3 prostate = system: PC-3 prostate
COLO 205 colon = system: COLO 205 colon
SK-MEL-2 melanoma = system: SK-MEL-2 melanoma
UACC-257 melanoma = system: UACC-257 melanoma
SF-539 CNS = system: SF-539 CNS

N#Cc1c(-c2ccccc2)cc(-c2ccccc2)n(C2OC(CO)C(O)C(O)C2O)c1=S (stereo not drawn)
44 µM and 67.9 µM: TGI (MDA-MB-435)
33.9 µM and > 100 µM: TGI (UACC-62 melanoma)
45.9 µM and > 100 µM: TGI (COLO 205 colon)
34.5 µM and > 100 µM: TGI (T-47D breast)
41.4 µM and > 100 µM: TGI (K-562 leukemia)
44.4 µM and > 100 µM: TGI (SF-295 CNS)
inactive: GI50 (DU-145 prostate) 42.2 µM and > 100 µM | GI50 (ACHN renal) 30.7 µM and 66.6 µM | GI50 (SF-295 CNS) 19.5 µM and 41.1 µM | GI50 (HOP-62 NSCLC) 34.3 µM and 72.8 µM | GI50 (HOP-92 NSCLC) 46.6 µM and > 100 µM | GI50 (K-562 leukemia) 13.7 µM and 29.4 µM | GI50 (SK-MEL-28 melanoma) 18.8 µM and 53.5 µM | GI50 (M14 melanoma) 25.1 µM and > 100 µM | GI50 (OVCAR-3 ovarian) 18 µM and 73 µM | GI50 (OVCAR-5 ovarian) 35.8 µM and > 100 µM | GI50 (MALME-3M melanoma) 24.9 µM and > 100 µM | GI50 (HCT-15 colon) 31 µM and 80.8 µM | GI50 (NCI-H226 lung) 22.3 µM and 69.8 µM | GI50 (NCI-H522 lung) 17.1 µM and 38.9 µM | GI50 (CAKI-1 renal) 38.1 µM and > 100 µM | GI50 (UACC-62 melanoma) 15.9 µM and 35.5 µM | GI50 (HCC-2998 colon) 26.4 µM and 93.8 µM | GI50 (MDA-MB-231 breast) 7.15 µM and 23.9 µM | GI50 (OVCAR-4 ovarian) 37.1 µM and > 100 µM | GI50 (SK-OV-3 ovarian) 40.3 µM and 85 µM | GI50 (MOLT-4 leukemia) 11.3 µM and 23.5 µM | GI50 (T-47D breast) 6.51 µM and 29.1 µM | GI50 (CCRF-CEM leukemia) 12.5 µM and 29.2 µM | GI50 (SN12C renal) 36.8 µM and 84.1 µM | GI50 (COLO 205 colon) 17.9 µM and 43 µM
80.6 µM and > 100 µM: TGI (BT-549 breast)
49.1 µM and > 100 µM: TGI (NCI-H226 lung)
34.3 µM and > 100 µM: TGI (OVCAR-3 ovarian)
37.7 µM and 92.3 µM: TGI (LOX IMVI melanoma)
35.6 µM and > 100 µM: TGI (NCI-H522 lung)
56 µM and > 100 µM: TGI (HT29 colon)
91 µM and > 100 µM: TGI (HCC-2998 colon)
56.3 µM and > 100 µM: TGI (RPMI-8226 leukemia)
31.1 µM and 83 µM: TGI (MDA-MB-231 breast)
52.5 µM: TGI (A498 renal)
35.9 µM: TGI (U251 CNS)
57.4 µM and > 100 µM: TGI (CCRF-CEM leukemia)
62.5 µM and > 100 µM: TGI (MALME-3M melanoma)
62.6 µM and > 100 µM: TGI (M14 melanoma)
78 µM and > 100 µM: TGI (MCF7 breast)
51.7 µM and 85.8 µM: TGI (MOLT-4 leukemia)
60.5 µM and > 100 µM: TGI (MDA-N)
> 100 µM: TGI (DU-145 prostate) | TGI (OVCAR-8 ovarian) | TGI (ACHN renal) | TGI (HL-60(TB) leukemia) | TGI (SNB-19 CNS) | TGI (HOP-62 NSCLC) | TGI (HOP-92 NSCLC) | TGI (IGROV1 ovarian) | TGI (EKVX NSCLC) | TGI (UO-31 renal) | TGI (KM12 colon) | TGI (786-0 renal) | TGI (SW-620 colon) | TGI (OVCAR-5 ovarian) | TGI (HCT-15 colon) | TGI (A549 NSCLC) | TGI (CAKI-1 renal) | TGI (SNB-75 CNS) | TGI (SR leukemia) | TGI (OVCAR-4 ovarian) | TGI (NCI/ADR-RES ovarian) | TGI (SK-OV-3 ovarian) | TGI (SF-268 CNS) | TGI (TK-10 renal) | TGI (RXF 393 renal) | TGI (SN12C renal) | TGI (PC-3 prostate)
64.4 µM and > 100 µM: TGI (HS 578T breast)
47.4 µM and > 100 µM: TGI (SK-MEL-28 melanoma)
58.9 µM and 89.7 µM: TGI (NCI-H23 lung)
82.8 µM and > 100 µM: TGI (NCI-H460 lung)
46.9 µM and > 100 µM: TGI (HCT-116 colon)
29.1 µM and > 100 µM: TGI (SK-MEL-5 melanoma)

O=S1(=O)N=C(SCc2ccccc2)N(c2ccccc2)c2ccncc21
> 100 µM: TGI (DU-145 prostate) | TGI (OVCAR-8 ovarian) | TGI (ACHN renal) | TGI (SK-MEL-5 melanoma) | TGI (HL-60(TB) leukemia) | TGI (NCI-H23 lung) | TGI (SF-295 CNS) | TGI (SNB-19 CNS) | TGI (NCI-H460 lung) | TGI (HOP-62 NSCLC) | TGI (K-562 leukemia) | TGI (SK-MEL-2 melanoma) | TGI (EKVX NSCLC) | TGI (MDA-MB-435) | TGI (SK-MEL-28 melanoma) | TGI (KM12 colon) | TGI (M14 melanoma) | TGI (786-0 renal) | TGI (SW-620 colon) | TGI (OVCAR-3 ovarian) | TGI (OVCAR-5 ovarian) | TGI (MALME-3M melanoma) | TGI (HCT-15 colon) | TGI (NCI-H226 lung) | TGI (MCF7 breast) | TGI (A549 NSCLC) | TGI (HCT-116 colon) | TGI (CAKI-1 renal) | TGI (UACC-62 melanoma) | TGI (SNB-75 CNS) | TGI (SR leukemia) | TGI (HCC-2998 colon) | TGI (MDA-MB-231 breast) | TGI (OVCAR-4 ovarian) | TGI (SK-OV-3 ovarian) | TGI (HT29 colon) | TGI (SF-268 CNS) | TGI (U251 CNS) | TGI (TK-10 renal) | TGI (LOX IMVI melanoma) | TGI (MOLT-4 leukemia) | TGI (T-47D breast) | TGI (CCRF-CEM leukemia) | TGI (UACC-257 melanoma) | TGI (RXF 393 renal) | TGI (SN12C renal) | TGI (PC-3 prostate) | TGI (SF-539 CNS)
38.3 µM: TGI (COLO 205 colon)
83.4 µM: TGI (HS 578T breast)
56.3 µM: TGI (NCI-H522 lung)
46.8 µM: TGI (UO-31 renal)
91.1 µM: TGI (NCI/ADR-RES ovarian)
89.6 µM: TGI (MDA-N)
82.7 µM: TGI (HOP-92 NSCLC)
59.9 µM: TGI (A498 renal)
94.4 µM: TGI (BT-549 breast)

Source: PubChem BioAssay (NCI)
